Results on one compound are retold here after US11466028B2, “Fused 1,4-oxazepines as BET protein degraders” (THE REGENTS OF THE UNIVERSITY OF MICHIGAN, priority 2016, dated 2022).

Like-named read-outs stand apart in the source and are kept apart here.

One assay deals with MDA-MB-231. As to the kind of experiment: WST-8 cell growth inhibition assay, MDA-MB-231. The assay is classed as cell-based. The settings on record: Homo sapiens, WST-8, Table 6. The procedure:
(§1) Cpd. Nos. 7 and 18 were tested in various triple-negative breast cancer cell lines using the WST-8 cell growth assay.

In the next assay the test system is MonoMac6. Put plainly: CellTiter-Glo cell viability, MonoMac6 leukemia cell line. The assay is classed as cell-based. As to conditions: Homo sapiens, MONO-MAC-6, Table 5. How it is done:
(§2) Cell growth inhibitory activity of representative Compounds of the Disclosure was determined using the CellTiter-Glo® Luminescent Cell Viability Assay. Cells were seeded in 384-well white opaque cell culture plates at a density of 2,000 cells/well with serially diluted compounds and incubated at 37° C. in an atmosphere of 95% air and 5% CO2 for 4 days. Cell viability was determined using the CellTiter-Glo® Luminescent Cell Viability Assay Kit (Promega, Madison, Wis.) according to the manufacture's instruction. Briefly, a volume of CellTiter-Glo® Reagent equal to the volume of cell culture medium was added to each well, and then the plates were incubated at room temperature for 10-20 minutes. The luminescent signal was measured using a Tecan Infinite M1000 multimode microplate reader (Tecan, Morrisville, N.C.). The half maximal inhibitory concentration (IC50) was calculated using the GraphPad Prism 5 software (GraphPad Software, La Jolla, Calif.).
(§3) Cpd. Nos. 18 and 19 were tested in various leukemia cell lines using the CellTiter-Glo® Luminescent Cell Viability Assay as described in Example 35.

Another assay concerns MOLM16. Put plainly: CellTiter-Glo cell viability, MOLM16 leukemia cell line. The assay is classed as cell-based. The settings on record: Table 5. How it is done: as §2, §3
The subject of a further assay is AML5. As to the kind of experiment: CellTiter-Glo cell viability, AML5 leukemia cell line. The assay is classed as cell-based. The settings on record: Table 5. How it is done: as §2, §3
For the next assay, the system named is MDA-MB-468. As to the kind of experiment: WST-8 cell growth inhibition assay, MDA-MB-468. The assay is classed as cell-based. As to conditions: Homo sapiens, WST-8, Table 6. How it is done: as §1
Another assay deals with T1, BRD2 (Homo sapiens, UniProt P25440).
T1 construct: endogenous in cells; host or cells: RS4;11 and MOLM-13 leukemia cells
T1 sequence (P25440 whole entry): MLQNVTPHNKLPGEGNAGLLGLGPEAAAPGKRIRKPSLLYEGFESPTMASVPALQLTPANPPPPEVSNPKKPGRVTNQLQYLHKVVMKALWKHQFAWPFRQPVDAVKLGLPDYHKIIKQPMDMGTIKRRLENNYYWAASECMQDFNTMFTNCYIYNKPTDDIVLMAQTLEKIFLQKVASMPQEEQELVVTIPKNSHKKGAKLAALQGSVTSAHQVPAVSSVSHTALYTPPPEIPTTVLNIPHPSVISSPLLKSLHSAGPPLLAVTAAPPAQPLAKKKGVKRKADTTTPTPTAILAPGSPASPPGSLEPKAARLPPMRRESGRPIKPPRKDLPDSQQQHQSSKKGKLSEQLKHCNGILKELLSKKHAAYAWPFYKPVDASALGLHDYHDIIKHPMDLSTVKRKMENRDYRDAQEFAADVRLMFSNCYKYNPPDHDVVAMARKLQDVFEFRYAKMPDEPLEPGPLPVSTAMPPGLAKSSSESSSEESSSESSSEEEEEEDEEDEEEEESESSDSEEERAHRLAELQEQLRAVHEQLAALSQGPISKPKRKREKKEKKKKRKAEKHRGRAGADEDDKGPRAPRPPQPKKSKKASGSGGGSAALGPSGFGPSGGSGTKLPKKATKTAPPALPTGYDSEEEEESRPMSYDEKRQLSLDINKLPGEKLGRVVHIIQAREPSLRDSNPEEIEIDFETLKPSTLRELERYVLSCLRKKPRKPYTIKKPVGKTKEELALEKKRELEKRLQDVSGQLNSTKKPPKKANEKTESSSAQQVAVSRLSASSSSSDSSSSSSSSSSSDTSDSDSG
Put plainly: Western blot, degradation of BRD2 in RS4;11 cells. The settings on record: 2.5 h, as compared to Compound A, FIG. 1. The assay is classed as cell-based. The procedure: (§4) Cells were treated with compounds at the indicated concentrations for 2.5 h and 3 h, respectively, for RS4;11 (see FIG. 1) and MOLM-13 (see FIG. 2) cells. Compound A is ((S)-3-benzyl-6,9-dimethyl-2-((1-methyl-1H-pyrazol-4-yl)ethynyl)-4H,6H-thieno[2,3-e][1,2,4]triazolo[3,4-c][1,4]oxazepine). See Cpd. No. 85 of U.S. Appl. No. 62/295,271.
(§5) Collected cells were lysed in lysis buffer [1% CHAPS, 150 mM NaCl, 20 mM Tris-HCl, 1 mM. EDTA, 1 mM EGTA, and COMPLETE proteinase inhibitor (Roche)] for 30 minutes on ice. Protein concentrations were determined using the Bio-Rad Protein Assay Dye reagent. Whole tumor lysates (20 μg) were separated on a 4-20% Novex gels (Invitrogen). The separated proteins were transferred to a PVDF membrane (BIO-RAD) and the PVDF membrane was then blotted with 5% Blotting-Grade Blocker (BIO-RAD) for 1 hour at room temperature. The primary antibodies used were BRD4 rabbit polyclonal antibody [Bethyl Laboratories, Inc, cat #A301] and BRD2 antibody.
(§6) The BIO-RAD Clarity Western ECL Substrates (BIO-RAD) and HyBlot CL film (Denville) were used for signal development and detection using a SRX-101A tabletop processor (Konica Minolta).

A further assay concerns MDA-MB-157. As to the kind of experiment: WST-8 cell growth inhibition assay, MDA-MB-157. The assay is classed as cell-based. The settings on record: Homo sapiens, WST-8, Table 6. How it is done: as §1
The test system of the next assay is MOLM-13. As to the kind of experiment: CellTiter-Glo cell growth inhibition, MOLM-13. The assay is classed as cell-based. As to conditions: Homo sapiens. The method in brief:
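Leukemia cells seeded at 2,000 cells/well with serially diluted compounds, 4 days at 37 °C, 5% CO2. Viability by CellTiter-Glo luminescence after 10-20 min at RT. IC50 calculated from the curves.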

The target in another assay is T2, BRD4 (Homo sapiens, UniProt O60885).
T2 construct: Collected cells were lysed in lysis buffer; endogenous in cells; host or cells: RS4;11 and MOLM-13 leukemia cells
Put plainly: Western blot, degradation of BRD4 in MOLM-13 cells. The settings on record: 3 h, as compared to Compound A, FIG. 2. The assay is classed as cell-based. The procedure: as §4, §5, §6

The next assay deals with HBL100. Put plainly: WST-8 cell growth inhibition assay, HBL100. The assay is classed as cell-based. The settings on record: Homo sapiens, HBL-100; WST-8, Table 6. The procedure: as §1
A further assay has as its system WHIM24 breast cancer PDX. As to the kind of experiment: WHIM24 breast cancer PDX model. The assay is classed as in vivo. As to conditions: FIG. 5. How it is done:
Representative Compounds of the Disclosure were tested in the RS4;11 and other xenograph models using similar techniques. […] No. 22 in the MDA-MB-231 TNBC model.

The next assay deals with RS4;11 xenograph tumors. Put plainly: RS4;11 xenograft model. The assay is classed as in vivo, SCID mice. As to conditions: SCID mice, i.v. 5 mg/kg at days 1, 3, 5 per week for two weeks, FIG. 4.

In the case of `Cc1nnc2n1-c1sc(C#Cc3cnn(CCCC#Cc4cccc5c4CN(C4CCC(=O)NC4=O)C5=O)c3)c(Cc3ccccc3)c1CO[C@H]2C` (stereo partly drawn) [Cpd. No. 18, 3-(4-(5-(4-(((S)-3-benzyl-6,9-dimethyl-4H,6H-thieno[2,3-e][1,2,4]triazolo[3,4-c][1,4]oxazepin-2-yl)ethynyl)-1H-pyrazol-1-yl)pent-1-yn-1-yl)-1-oxoisoindolin-2-yl) piperidine-2,6-dione], the IC50 with MDA-MB-231 was 0.76 ± 0.08 nM; with MonoMac6 it was 0.014 ± 0.004 nM; in the assay on MOLM16 it was under 0.01 nM; in the assay with AML5, under 0.01 nM; in the assay on MDA-MB-468 it was 0.78 ± 0.06 nM; with MDA-MB-157, 0.06 ± 0.01 nM. Moreover, the IC50 with MOLM-13 (MOLM-13, 96 h, 4 days, Table 4, read-out: MOLM-13 IC50) was 1 nM; with MOLM-13 (MOLM-13, Table 5, read-out: IC50 (nM) MOLM13), 0.5 nM; in the assay with HBL100, 0.84 ± 0.14 nM. Also, the “degradation of BRD2 protein (Western blot)” value at BRD2 is listed as “induce degradation”. For the same compound, the “degradation of BRD4 protein (Western blot)” value on BRD4 was “induce degradation”. Moreover, the “tumor regression in the WHIM24 breast cancer PDX model” value with WHIM24 breast cancer PDX is given as “induces tumor regression”. Besides, the “tumor regression in RS4;11 xenograph tumors” value with RS4;11 xenograph tumors is “induce tumor regression”.
